Laboratory results reported in patent publication US9440957B2, “Compounds and compositions for modulating EGFR Activity” (Novartis AG, priority 2012, dated 2016).
Like-named read-outs stand apart in the source and are kept apart here.

Assays:
[1] = molecular target: human EGFR L858R/T790M (NIH/3T3 cells) (Homo sapiens, UniProt P00533, L858R/T790M); assay: EGFR target modulation in engineered NIH/3T3 cell lines (phospho-EGFR Y1068 AlphaLISA), EGFR L858R/T790M; format: cell-based; details: engineered NIH/3T3 cells, read-out: NIH3T3 IC50 (μM) EGFR (L858R/T790M)
Summary of the method: (§1)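 Engineered NIH/3T3 cells were plated overnight, then exposed to a 12-point 1:3 compound series (from a 10 μM stock) for 3 hours at 37 °C. WT-expressing cells alone were stimulated with 50 ng/ml EGF for 5 minutes before lysis. IC50s came from non-linear fits of AlphaLISA signal.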

[2] = molecular target: H1975 (EGFR L858/T790M) (Homo sapiens, UniProt P00533, L858R/T790M); assay: EGFR target modulation in H1975 cell line (phospho-EGFR Y1173 ELISA); format: cell-based
Summary of the method: (§2)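 Phospho-EGFR Y1173 levels were measured by chemiluminescent capture ELISA in lysates of cells exposed to compound for 3 hours at 37 °C. Inhibition was normalised to EGF-stimulated control cells taken as maximal response, and IC50 values were obtained by non-linear curve fitting.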

[3] = molecular target: HCC827 (Del E746-A750) (Homo sapiens, UniProt P00533, DEL746-750); assay: EGFR target modulation in HCC827 cell line (phospho-EGFR Y1173 ELISA); format: cell-based
Summary of the method: as §2

[4] = molecular target: human EGFR L858R (NIH/3T3 cells) (Homo sapiens, UniProt P00533, L858R); assay: EGFR target modulation in engineered NIH/3T3 cell lines (phospho-EGFR Y1068 AlphaLISA), EGFR L858R; format: cell-based; details: engineered NIH/3T3 cells, read-out: NIH3T3 IC50 (μM) EGFR (L858R)
Summary of the method: as §1

[5] = molecular target: T1, EGFR(L858R/T790M) (Homo sapiens, UniProt P00533, L858R/T790M); assay: EGFR biochemical assay (HTRF), IC50 determinations
T1 construct: purchased from Carna (GST-a.a. 669-1210)
Summary of the method: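 Two formats were run: compound preincubated at room temperature with enzyme and biotin-TK peptide before ATP starts the reaction, or no preincubation with enzyme added last. Reactions ran 60 min at room temperature and were stopped with EDTA. Phosphopeptide was read by HTRF (PT66K/SAXL, 1 h).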

[6] = molecular target: human EGFR WT (NIH/3T3 cells, EGF-induced) (Homo sapiens, UniProt P00533); assay: EGFR target modulation in engineered NIH/3T3 cell lines (phospho-EGFR Y1068 AlphaLISA), EGFR WT; format: cell-based; details: engineered NIH/3T3 cells, read-out: NIH3T3 IC50 (μM) EGFR (WT)
Summary of the method: as §1

[7] = EGFR (L858R/T790M) with 90 min pre-incubation, read-out: IC50 (μM) Column B
[8] = EGFR (L858R/T790M) with no pre-incubation, read-out: IC50 (μM) Column A

human EGFR L858R (NIH/3T3 cells), sequence (P00533 25-1210 L858R): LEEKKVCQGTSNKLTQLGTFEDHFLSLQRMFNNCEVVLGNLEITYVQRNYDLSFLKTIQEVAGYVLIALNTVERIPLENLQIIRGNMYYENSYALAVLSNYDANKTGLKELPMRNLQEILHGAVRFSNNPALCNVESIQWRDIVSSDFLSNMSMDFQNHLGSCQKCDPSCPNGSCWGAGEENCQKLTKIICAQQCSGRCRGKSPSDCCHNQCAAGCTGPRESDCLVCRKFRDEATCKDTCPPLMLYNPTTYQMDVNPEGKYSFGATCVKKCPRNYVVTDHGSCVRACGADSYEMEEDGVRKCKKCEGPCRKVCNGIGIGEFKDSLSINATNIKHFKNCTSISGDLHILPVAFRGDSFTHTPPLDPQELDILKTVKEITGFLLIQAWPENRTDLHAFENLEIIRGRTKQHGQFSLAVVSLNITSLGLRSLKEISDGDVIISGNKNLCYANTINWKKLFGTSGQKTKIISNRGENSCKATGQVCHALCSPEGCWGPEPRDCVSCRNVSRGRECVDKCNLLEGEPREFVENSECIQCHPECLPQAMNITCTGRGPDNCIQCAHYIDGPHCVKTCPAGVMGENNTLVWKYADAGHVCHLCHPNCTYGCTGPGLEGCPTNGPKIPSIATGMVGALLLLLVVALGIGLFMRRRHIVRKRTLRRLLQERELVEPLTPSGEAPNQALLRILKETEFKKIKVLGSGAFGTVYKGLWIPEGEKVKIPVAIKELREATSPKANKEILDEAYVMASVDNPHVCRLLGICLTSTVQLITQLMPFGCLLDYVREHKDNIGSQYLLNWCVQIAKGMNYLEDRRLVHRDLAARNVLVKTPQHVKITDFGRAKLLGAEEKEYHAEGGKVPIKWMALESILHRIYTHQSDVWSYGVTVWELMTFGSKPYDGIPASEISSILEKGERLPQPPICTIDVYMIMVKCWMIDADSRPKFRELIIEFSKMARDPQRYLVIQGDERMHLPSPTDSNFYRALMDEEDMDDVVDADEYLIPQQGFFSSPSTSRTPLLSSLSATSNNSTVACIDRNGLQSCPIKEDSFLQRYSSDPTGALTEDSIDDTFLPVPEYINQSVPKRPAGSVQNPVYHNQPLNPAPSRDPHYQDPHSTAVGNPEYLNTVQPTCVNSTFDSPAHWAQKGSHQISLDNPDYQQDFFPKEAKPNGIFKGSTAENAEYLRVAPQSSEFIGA
T1 sequence (P00533 669-1210 T790M/L858R): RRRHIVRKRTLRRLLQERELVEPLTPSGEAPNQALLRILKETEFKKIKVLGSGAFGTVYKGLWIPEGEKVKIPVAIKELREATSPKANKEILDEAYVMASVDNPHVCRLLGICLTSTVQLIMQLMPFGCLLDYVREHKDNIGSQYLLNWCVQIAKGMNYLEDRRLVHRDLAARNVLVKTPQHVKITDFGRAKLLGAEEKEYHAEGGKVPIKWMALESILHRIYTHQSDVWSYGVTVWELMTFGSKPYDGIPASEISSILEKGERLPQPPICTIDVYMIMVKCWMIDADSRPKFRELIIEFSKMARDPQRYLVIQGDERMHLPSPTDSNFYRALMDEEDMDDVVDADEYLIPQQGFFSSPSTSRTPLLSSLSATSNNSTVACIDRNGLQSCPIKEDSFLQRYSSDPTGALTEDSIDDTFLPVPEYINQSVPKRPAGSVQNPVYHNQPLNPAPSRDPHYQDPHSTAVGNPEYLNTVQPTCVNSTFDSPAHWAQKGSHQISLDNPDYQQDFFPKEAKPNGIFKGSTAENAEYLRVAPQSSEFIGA
human EGFR L858R/T790M (NIH/3T3 cells), sequence (P00533 25-1210 T790M/L858R): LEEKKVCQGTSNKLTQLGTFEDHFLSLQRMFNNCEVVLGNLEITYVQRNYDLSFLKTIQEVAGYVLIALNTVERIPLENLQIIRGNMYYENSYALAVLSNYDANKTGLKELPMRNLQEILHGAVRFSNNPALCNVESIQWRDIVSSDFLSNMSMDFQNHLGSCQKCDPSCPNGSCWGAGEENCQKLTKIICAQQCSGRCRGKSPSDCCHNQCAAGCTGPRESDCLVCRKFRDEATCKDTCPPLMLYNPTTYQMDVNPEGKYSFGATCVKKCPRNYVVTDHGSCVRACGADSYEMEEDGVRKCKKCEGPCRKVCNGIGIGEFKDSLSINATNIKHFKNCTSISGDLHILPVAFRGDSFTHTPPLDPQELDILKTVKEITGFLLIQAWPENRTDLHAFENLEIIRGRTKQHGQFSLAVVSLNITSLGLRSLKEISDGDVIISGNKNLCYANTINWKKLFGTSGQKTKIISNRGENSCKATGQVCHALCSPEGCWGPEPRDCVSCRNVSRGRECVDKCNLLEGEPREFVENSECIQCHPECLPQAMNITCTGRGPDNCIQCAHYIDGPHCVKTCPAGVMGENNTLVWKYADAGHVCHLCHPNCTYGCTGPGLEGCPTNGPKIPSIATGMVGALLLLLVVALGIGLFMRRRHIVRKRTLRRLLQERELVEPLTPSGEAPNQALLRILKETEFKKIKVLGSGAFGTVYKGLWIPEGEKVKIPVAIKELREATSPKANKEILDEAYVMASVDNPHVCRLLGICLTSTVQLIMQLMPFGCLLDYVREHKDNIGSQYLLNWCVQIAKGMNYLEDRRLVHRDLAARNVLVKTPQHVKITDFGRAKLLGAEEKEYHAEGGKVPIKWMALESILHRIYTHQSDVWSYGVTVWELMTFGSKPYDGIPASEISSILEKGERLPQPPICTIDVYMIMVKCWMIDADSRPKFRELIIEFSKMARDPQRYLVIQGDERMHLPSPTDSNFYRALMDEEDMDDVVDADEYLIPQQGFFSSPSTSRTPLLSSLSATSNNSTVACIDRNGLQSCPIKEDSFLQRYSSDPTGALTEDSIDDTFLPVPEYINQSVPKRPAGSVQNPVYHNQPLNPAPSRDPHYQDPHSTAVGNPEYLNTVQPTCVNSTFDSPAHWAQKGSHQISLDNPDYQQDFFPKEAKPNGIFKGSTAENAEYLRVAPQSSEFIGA
H1975 (EGFR L858/T790M), sequence (P00533 25-1210 T790M/L858R): as above

IC50 [1]	IC50 [2]	IC50 [3]	IC50 [4]	IC50 [5, 7]	IC50 [5, 8]	IC50 [6]	SMILES
0.001 µM	1 nM	< 1 nM	< 0.001 µM	< 0.001 µM	0.002 µM	0.032 µM	C=CC(=O)N1CCCC[C@@H](n2c(NC(=O)c3ccnc(C)c3)nc3cc(CN4CC(F)C4)cc(C)c32)C1 [Example 17-152]
< 0.001 µM	< 1 nM	< 1 nM	< 0.001 µM	< 0.001 µM	0.002 µM	0.015 µM	C=CC(=O)N1CCCC[C@@H](n2c(NC(=O)c3ccnc(C)c3)nc3cc(CN4CC[C@H](OC)C4)cc(C)c32)C1 [Example 17-149]

Further lines, the molecule ahead of its results:

SMILES	IC50 [1]	IC50 [2]	IC50 [3]	IC50 [4]	IC50 [5, 7]	IC50 [5, 8]	IC50 [6]
C=CC(=O)N1CCCC[C@@H](n2c(NC(=O)c3ccnc(C)c3)nc3cc(CN4CC[C@@H](OC)C4)cc(C)c32)C1 [Example 17-150]	0.001 µM	2 nM	< 1 nM	0.001 µM	< 0.001 µM	0.003 µM	0.042 µM
C=CC(=O)N1CCCC[C@@H](n2c(NC(=O)c3ccnc(C)c3)nc3cc(CN4CC[C@H](F)C4)cc(C)c32)C1 [Example 17-147]	< 0.001 µM	< 1 nM	< 1 nM	< 0.001 µM	< 0.001 µM	0.002 µM	0.025 µM
C=CC(=O)N1CCCC[C@@H](n2c(NC(=O)c3ccnc(C)c3)nc3cc(CN4CC[C@@H](F)C4)cc(C)c32)C1 [Example 17-148]	0.002 µM	1 nM	< 1 nM	0.001 µM	< 0.001 µM	0.002 µM	0.083 µM
C=CC(=O)N1CCCC[C@@H](n2c(NC(=O)c3ccnc(C)c3)nc3cc(CN4CC(OC)C4)cc(C)c32)C1 [Example 17-154]	0.001 µM	< 1 nM	< 1 nM	< 0.001 µM	< 0.001 µM	0.002 µM	0.01 µM
